These results are taken from patent US9347934B2, “Assays for identifying compounds that modulate bitter taste” (CHROMOCELL CORPORATION, priority 2011, dated 2016).

One test addresses T1, TAS2R4 (Homo sapiens, UniProt Q9NYW5).
T1 construct: expressed in transfected cells
T1 sequence (Q9NYW5 1-299): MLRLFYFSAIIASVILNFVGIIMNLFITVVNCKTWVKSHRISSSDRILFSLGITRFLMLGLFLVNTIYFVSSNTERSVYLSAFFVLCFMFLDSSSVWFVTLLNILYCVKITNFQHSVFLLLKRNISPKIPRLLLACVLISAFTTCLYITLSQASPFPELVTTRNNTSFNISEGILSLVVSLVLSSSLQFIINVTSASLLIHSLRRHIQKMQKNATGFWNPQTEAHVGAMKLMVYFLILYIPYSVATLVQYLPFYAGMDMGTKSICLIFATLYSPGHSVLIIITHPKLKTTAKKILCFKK
The experiment in a line: Calcium fluorescence functional assay, TAS2R4 cell line. It is filed as cell-based. Particulars: for TAS2R4 bitter taste receptor activity (changes in intracellular calcium): 20 mM tastant, cell line expressing human TAS2R4 and mouse Gα15. On the procedure:
(§1) Accordingly, each cell line of the panel expressed a human bitter taste receptor and mouse Gα15 signaling protein.
(§2) Probenecid was not included in the load solution.
(§3) After dye loading, cell plates were placed in a fluorescent plate reader (e.g., FDSS6000 (Hamamatsu, Japan)) and receptor stimulation was measured by adding 50 ul of 3× concentrated ligand/agonist stock. Fluorescence was monitored continuously for 10 s before agonist addition and for 100-250 s after stimulation with agonist.
(§4) Receptor Activation is defined as follows: % Activation=[((Maximum signal fluorescence−Minimum signal fluorescence)−(Maximum control fluorescence−Minimum control fluorescence))/(Maximum buffer fluorescence−Minimum buffer fluorescence)]*100 Functional Response=[(Maximum signal fluorescence−Minimum signal fluorescence)−(Maximum control fluorescence−Minimum control fluorescence)] • Signal Fluorescence: refers to the change in fluorescence seen with addition of ligand • Control fluorescence: refers to the change in fluorescence seen with addition of buffer (negative control) • Calcium signals from ligand and control were normalized to the basal fluorescence of the cells prior to the stimulation.
(§5) A concentration analysis was performed and EC50 values were calculated by nonlinear regression using the formula: Y=Bottom+(Top-Bottom)/(1+10^((Log EC50-X)*Hill Slope)), X=log of dose or concentration, Y=Response (increasing as X increases), Top=maximum signal, Bottom=minimum signal.

Another test has as its target T2, TAS2R7 (Homo sapiens, UniProt Q9NYW3).
T2 construct: expressed in transfected cells
T2 sequence (Q9NYW3 1-318): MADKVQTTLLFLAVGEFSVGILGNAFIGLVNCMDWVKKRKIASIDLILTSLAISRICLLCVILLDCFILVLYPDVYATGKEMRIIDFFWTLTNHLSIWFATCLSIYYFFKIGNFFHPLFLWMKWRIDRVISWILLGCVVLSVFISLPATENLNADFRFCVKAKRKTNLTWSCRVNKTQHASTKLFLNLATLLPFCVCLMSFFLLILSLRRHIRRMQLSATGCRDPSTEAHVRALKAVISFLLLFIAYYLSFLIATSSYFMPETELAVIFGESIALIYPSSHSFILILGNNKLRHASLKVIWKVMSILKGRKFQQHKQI
The experiment in a line: Calcium fluorescence functional assay, TAS2R7 cell line. It is filed as cell-based. The following applies: 20 mM tastant; cell line expressing human TAS2R7 and mouse Gα15. On the procedure:
as §1, §2, §3, §4, §5

A further test addresses T3, TAS2R9 (Homo sapiens, UniProt Q9NYW1).
T3 construct: expressed in transfected cells
T3 sequence (Q9NYW1 1-312): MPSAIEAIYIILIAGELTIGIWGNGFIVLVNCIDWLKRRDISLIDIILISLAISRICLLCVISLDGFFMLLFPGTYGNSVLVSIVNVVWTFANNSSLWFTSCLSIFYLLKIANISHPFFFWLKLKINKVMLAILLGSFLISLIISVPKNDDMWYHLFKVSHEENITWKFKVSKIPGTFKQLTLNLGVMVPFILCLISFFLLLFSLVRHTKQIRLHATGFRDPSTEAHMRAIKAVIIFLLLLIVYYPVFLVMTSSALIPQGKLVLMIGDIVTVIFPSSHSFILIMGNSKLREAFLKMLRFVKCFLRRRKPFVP
The experiment in a line: Calcium fluorescence functional assay, TAS2R9 cell line. Particulars: for TAS2R9 bitter taste receptor activity (changes in intracellular calcium): 20 mM tastant, cell line expressing human TAS2R9 and mouse Gα15. It is filed as cell-based. On the procedure:
as §1, §2, §3, §4, §5

The target in a further test is T4, TAS2R10 (Homo sapiens, UniProt Q9NYW0).
T4 construct: expressed in transfected cells
T4 sequence (Q9NYW0 1-307): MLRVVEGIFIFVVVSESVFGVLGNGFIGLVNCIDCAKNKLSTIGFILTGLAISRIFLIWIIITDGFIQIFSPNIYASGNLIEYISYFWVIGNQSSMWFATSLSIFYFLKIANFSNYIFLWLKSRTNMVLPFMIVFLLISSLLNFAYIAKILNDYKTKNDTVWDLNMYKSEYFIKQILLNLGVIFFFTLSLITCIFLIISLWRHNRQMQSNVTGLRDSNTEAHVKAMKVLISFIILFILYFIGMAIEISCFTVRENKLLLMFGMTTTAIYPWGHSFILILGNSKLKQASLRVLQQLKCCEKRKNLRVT
The experiment in a line: Calcium fluorescence functional assay, TAS2R10 cell line. Particulars: 20 mM tastant; cell line expressing human TAS2R10 and mouse Gα15. It is filed as cell-based. On the procedure:
as §1, §2, §3, §4, §5

Another test has as its target T5, TAS2R43 (Homo sapiens, UniProt P59537).
T5 construct: expressed in transfected cells
T5 sequence (P59537 1-309): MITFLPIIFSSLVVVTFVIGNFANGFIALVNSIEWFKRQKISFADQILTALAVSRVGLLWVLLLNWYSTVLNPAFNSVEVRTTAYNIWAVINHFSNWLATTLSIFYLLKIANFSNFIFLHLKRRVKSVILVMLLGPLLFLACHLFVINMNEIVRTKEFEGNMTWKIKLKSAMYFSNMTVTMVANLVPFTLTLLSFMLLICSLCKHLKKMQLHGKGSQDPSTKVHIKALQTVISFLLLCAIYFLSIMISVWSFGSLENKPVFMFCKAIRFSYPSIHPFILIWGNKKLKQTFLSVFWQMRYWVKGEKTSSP
The experiment in a line: Calcium fluorescence functional assay, TAS2R43 cell line. It is filed as cell-based. Particulars: 20 mM tastant; cell line expressing human TAS2R43 and mouse Gα15. Here is the method:
as §1, §2, §3, §4, §5

The target in the next test is T6, TAS2R55 (Homo sapiens, UniProt Q7RTR8).
T6 construct: expressed in transfected cells
T6 sequence (Q7RTR8 1-314): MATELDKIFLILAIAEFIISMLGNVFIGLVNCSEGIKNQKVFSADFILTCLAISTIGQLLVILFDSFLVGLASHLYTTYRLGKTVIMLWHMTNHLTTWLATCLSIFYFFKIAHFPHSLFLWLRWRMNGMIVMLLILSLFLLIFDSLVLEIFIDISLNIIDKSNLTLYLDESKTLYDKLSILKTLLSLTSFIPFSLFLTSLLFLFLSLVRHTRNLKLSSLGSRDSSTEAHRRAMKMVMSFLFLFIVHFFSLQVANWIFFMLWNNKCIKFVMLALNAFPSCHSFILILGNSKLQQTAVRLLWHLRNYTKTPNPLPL
Description: Calcium fluorescence functional assay, TAS2R55 cell line. It is filed as cell-based. Particulars: 20 mM tastant; cell line expressing human TAS2R55 and mouse Gα15. Here is the method: as §1, §2, §3, §4, §5

For test [1], the system named is panel of twenty-five bitter taste receptor expressing cell lines. Description: Panel of twenty-five bitter receptor expressing cell lines exposed to 20 mM tastant. It is filed as cell-based, human. Particulars: the remaining nineteen (KCl) or eighteen receptors. Here is the method:
as §1, §2, §3, §4

`CC1=CC(=O)NS(=O)(=O)O1` [Acesulfame K]: on TAS2R4, the “TAS2R4 bitter taste receptor activity (changes in intracellular calcium)” value was “induced”. Further, the “TAS2R7 bitter taste receptor activity (changes in intracellular calcium)” value at TAS2R7 is reported as “did not induce”. The “TAS2R9 bitter taste receptor activity (changes in intracellular calcium)” value at TAS2R9 is “induced”. Besides, the “TAS2R10 bitter taste receptor activity (changes in intracellular calcium)” value on TAS2R10 was “did not induce”. Besides, the “TAS2R43 bitter taste receptor activity (changes in intracellular calcium)” value at TAS2R43 is given as “did not induce”. Also, at TAS2R55, the “TAS2R55 bitter taste receptor activity (changes in intracellular calcium)” value is given as “did not induce”. In addition, in test [1], the “functional response of the remaining (non-responding) receptors of the panel, threshold” value is given as no more than 40%.
As for `[Cl-].[K+]` [KCl, potassium chloride], the “TAS2R4 bitter taste receptor activity (changes in intracellular calcium)” value at TAS2R4 is “induced”. Further, the concentration for a half-maximal effect (EC50) at TAS2R4 (increasing concentrations of KCl, TAS2R4 cell line (FIG. 3), read-out: EC50 value, activation of TAS2R4) fell in the range of 5 to 15 mM; on TAS2R9 (increasing concentrations of KCl, TAS2R9 cell line (FIG. 3), read-out: EC50 value, activation of TAS2R9), 5 to 15 mM. For the same compound, the “TAS2R7 bitter taste receptor activity (changes in intracellular calcium)” value on TAS2R7 was “did not induce”. In addition, on TAS2R9, the “TAS2R9 bitter taste receptor activity (changes in intracellular calcium)” value is on record as “induced”. In addition, the “TAS2R10 bitter taste receptor activity (changes in intracellular calcium)” value at TAS2R10 is “did not induce”. Moreover, the “TAS2R43 bitter taste receptor activity (changes in intracellular calcium)” value on TAS2R43 is “did not induce”. Further, on TAS2R55, the “TAS2R55 bitter taste receptor activity (changes in intracellular calcium)” value is listed as “did not induce”. Besides, the “functional response of the remaining (non-responding) receptors of the panel, threshold” value in test [1] was no more than 40%.
`CC(O)C(=O)[O-].[K+]` (centres unmarked) [Potassium lactate, potassium lactate]: the “TAS2R4 bitter taste receptor activity (changes in intracellular calcium)” value on TAS2R4 was “induced”. The “TAS2R7 bitter taste receptor activity (changes in intracellular calcium)” value at TAS2R7 is on record as “did not induce”. Besides, the “TAS2R9 bitter taste receptor activity (changes in intracellular calcium)” value at TAS2R9 is “induced”. Further, the “TAS2R10 bitter taste receptor activity (changes in intracellular calcium)” value at TAS2R10 was “did not induce”. For the same compound, the “TAS2R43 bitter taste receptor activity (changes in intracellular calcium)” value at TAS2R43 was “did not induce”. Further, the “TAS2R55 bitter taste receptor activity (changes in intracellular calcium)” value at TAS2R55 is “did not induce”. Further, the “functional response of the remaining (non-responding) receptors of the panel, threshold” value in test [1] was no more than 40%.
